We go through 23 molecules from US9216968B2, “Heterocyclic derivative and pharmaceutical drug” (NIPPON SHINYAKU CO., LTD., priority 2011, dated 2015).

As a reminder, the IC50 is the point on the concentration scale where inhibition reaches its midpoint.

Where a name gives a salt, the structure may show the parent alone.

In one assay the target is human mPGES-1 (Homo sapiens (Human), UniProt O14684). Nature of the assay: mPGES-1 inhibiting activity (microsome fractions, PGE2 by HTRF). The class given is biochemical. To be noted: microsomes from CHO-K1 cells transfected with human mPGES-1; PGH2 1 μM, 4° C., 60 seconds; read-out: mPGES-1 Inhibition IC50. The method, boiled down: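 PGE2 formation read by HTRF after 60 s at 4 °C with 1 μM PGH2 substrate, following 20 min compound preincubation (1% DMSO) with human mPGES-1 microsomes from transfected CHO-K1 cells. Buffer: potassium phosphate, reduced glutathione, pH 7.4; IC50 from activity relative to enzyme-free blank.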
Sequence of human mPGES-1 (O14684 whole entry): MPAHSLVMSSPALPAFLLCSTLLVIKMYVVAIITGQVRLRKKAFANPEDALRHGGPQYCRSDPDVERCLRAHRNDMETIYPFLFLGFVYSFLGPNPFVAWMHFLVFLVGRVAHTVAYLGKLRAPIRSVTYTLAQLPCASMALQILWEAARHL
In general terms: Time-resolved FRET reads energy transfer from a long-lived donor to a nearby acceptor.

For the next assay, the system named is A549 cells. As to the kind of experiment: Inhibition of PGE2 production in A549 cell (IL-1β stimulated). The class given is cell-based, human. As to conditions: Homo sapiens, A549, 24 h, IL-1β 5 ng/well, PGE2 in culture medium. The essentials: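 After IL-1β (5 ng/well) stimulation for 24 h at 37 °C, following a 60-min compound pretreatment in RPMI with 3% FBS, medium PGE2 (HTRF) and PGF2α (EIA) from human A549 cells were quantified. 100% activity set as IL-1β-induced minus basal production; IC50 calculated.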

On to `Cc1ccc(NC(=O)c2cc(NC(=O)c3cc(Cl)ccc3Cl)cc3[nH]c(C(C)(C)C)nc23)cc1Cl` [Example 88, 2-tert-Butyl-N-(3-chloro-4-methylphenyl)-6-{[(2,5-dichlorophenyl)carbonyl]amino}-1H-benzimidazole-4-carboxamide hydrochloride], for which the half-maximal inhibitory concentration (IC50) at human mPGES-1 was 15.1 nM; in the assay with A549 cells, 9.2 nM.
Taken in the same sequence, the figures for `Cc1c(Cl)cccc1NC(=O)c1cc(NC(=O)c2ccccc2C(F)(F)F)cc2[nH]c(C3CN(C(=O)OC(C)(C)C)C3)nc12` [Example 61, tert-Butyl 3-{4-[(3-chloro-2-methylphenyl)carbamoyl]-6-({[2-(trifluoromethyl)phenyl]carbonyl}amino)-1H-benzimidazol-2-yl}azetidine-1-carboxylate] were 3.2 nM and 66.7 nM.
On to `COCCNc1nc2c(C(=O)Nc3cccc(Cl)c3C)cc(NC(=O)c3ccccc3C(F)(F)F)cc2[nH]1` [Example 136, N-(3-Chloro-2-methylphenyl)-2-[(2-methoxyethyl)amino]-6-({[2-(trifluoromethyl)phenyl]carbonyl}amino)-1H-benzimidazole-4-carboxamide hydrochloride], for which the IC50 at human mPGES-1 came to 2.4 nM; in the assay with A549 cells, 61.9 nM.
Taken in the same sequence, the figures for `COCc1nc2c(C(=O)NCc3ccccc3Cl)cc(NC(=O)c3ccccc3C(F)(F)F)cc2[nH]1` [Example 24, N-(2-Chlorobenzyl)-2-(methoxymethyl)-6-({[2-(trifluoromethyl)phenyl]carbonyl}amino)-1H-benzimidazole-4-carboxamide hydrochloride] were 10.5 nM and 751 nM.
The like results for `O=C(Nc1cc(C(=O)NC2CCCCC2)c2nc[nH]c2c1)c1ccccc1C(F)(F)F` [Example 2, N-Cyclohexyl-6-({[2-(trifluoromethyl)phenyl]carbonyl}amino)-1H-benzimidazole-4-carboxamide] were, in that order, 7.6 nM and 240 nM.
The like results for `CNc1nc2c(C(=O)Nc3cccc(Cl)c3C)cc(NC(=O)c3ccccc3C(F)(F)F)cc2[nH]1` [Example 138, N-(3-Chloro-2-methylphenyl)-2-(methylamino)-6-({[2-(trifluoromethyl)phenyl]carbonyl}amino)-1H-benzimidazole-4-carboxamide hydrochloride] were, in that order, 2.2 nM and 87.4 nM.
`COCCOCc1nc2c(C(=O)Nc3cccc(Cl)c3C)cc(NC(=O)c3ccccc3C(F)(F)F)cc2[nH]1` [Example 74, N-(3-Chloro-2-methylphenyl)-2-[(2-methoxyethoxy)methyl]-6-({[2-(trifluoromethyl)phenyl]carbonyl}amino)-1H-benzimidazole-4-carboxamide hydrochloride]: the results for the IC50 at human mPGES-1 and in the assay on A549 cells were 71.3 nM and 10.4 nM, respectively.
The like results for `Cc1c(Cl)cccc1NC(=O)c1cc(NC(=O)c2ccccc2C(F)(F)F)cc2[nH]c([C@@H]3CCCN3)nc12` [Example 71, N-(3-Chloro-2-methylphenyl)-2-[(2S)-pyrrolidin-2-yl]-6-({[2-(trifluoromethyl)phenyl]carbonyl}amino)-1H-benzimidazole-4-carboxamide dihydrochloride] were, in that order, 33.1 nM and 227 nM.
Taken in the same sequence, the figures for `CCc1nc2c(C(=O)Nc3cccc(Cl)c3C)cc(NC(=O)c3ccccc3C(F)(F)F)cc2[nH]1` [Example 17, N-(3-Chloro-2-methylphenyl)-2-ethyl-6-({[2-(trifluoromethyl)phenyl]carbonyl}amino)-1H-benzimidazole-4-carboxamide] were 9.8 nM and 21.6 nM.
Taken in the same sequence, the figures for `Cc1c(Cl)cccc1NC(=O)c1cc(NC(=O)c2ccccc2C(F)(F)F)cc2[nH]c([C@H]3CCCN3C(=O)OC(C)(C)C)nc12` [Example 70, tert-Butyl (2R)-2-{4-[(3-chloro-2-methylphenyl)carbamoyl]-6-({[2-(trifluoromethyl)phenyl]carbonyl}amino)-1H-benzimidazol-2-yl}pyrrolidine-1-carboxylate] were 4.6 nM and 147 nM.
On to `Cc1c(Cl)cccc1NC(=O)c1cc(NC(=O)c2ccccc2C(F)(F)F)cc2[nH]c(N3CC[C@H](O)C3)nc12` [Example 150, N-(3-Chloro-2-methylphenyl)-2-[(3S)-3-hydroxypyrrolidin-1-yl]-6-({[2-(trifluoromethyl)phenyl]carbonyl}amino)-1H-benzimidazole-4-carboxamide hydrochloride], for which the concentration for half-maximal inhibition (IC50) at human mPGES-1 amounted to 2.1 nM; with A549 cells, 376 nM.
The like results for `COCc1nc2c(C(=O)Nc3ccc(C)cc3C)cc(NC(=O)c3ccccc3C(F)(F)F)cc2[nH]1` [Example 29, N-(2,4-Dimethylphenyl)-2-(methoxymethyl)-6-({[2-(trifluoromethyl)phenyl]carbonyl}amino)-1H-benzimidazole-4-carboxamide hydrochloride] were, in that order, 3.5 nM and 85.5 nM.
For `COCc1nc2c(C(=O)Nc3ccccc3F)cc(NC(=O)c3ccccc3C(F)(F)F)cc2[nH]1` [Example 35, N-(2-Fluorophenyl)-2-(methoxymethyl)-6-({[2-(trifluoromethyl)phenyl]carbonyl}amino)-1H-benzimidazole-4-carboxamide], the IC50 at human mPGES-1 came out at 20.3 nM; in the assay with A549 cells, 205 nM.
Regarding `Cc1c(Cl)cccc1NC(=O)c1cc(NC(=O)c2ccccc2C(F)(F)F)cc2[nH]c(N[C@@H](CO)C(C)C)nc12` [Example 171, N-(3-Chloro-2-methylphenyl)-2-{[(2R)-1-hydroxy-3-methylbutan-2-yl]amino}-6-({[2-(trifluoromethyl)phenyl]carbonyl}amino-1H-benzimidazole-4-carboxamide hydrochloride], the IC50 on human mPGES-1 stood at 4.7 nM; with A549 cells, 97.8 nM.
The like results for `COCc1nc2c(C(=O)NC3CCCCC3)cc(NC(=O)c3ccccc3C(F)(F)F)cc2[nH]1` [Example 20, N-Cyclohexyl-2-(methoxymethyl)-6-({[2-(trifluoromethyl)phenyl]carbonyl}amino)-1H-benzimidazole-4-carboxamide] were, in that order, 5.6 nM and 98 nM.
Consider `Cc1c(Cl)cccc1NC(=O)c1cc(NC(=O)c2ccccc2C(F)(F)F)cc2[nH]c(NCCOC(C)C)nc12` [Example 175, N-(3-Chloro-2-methylphenyl)-2-{[2-(propan-2-yloxy)ethyl]amino}-6-({[2-(trifluoromethyl)phenyl]carbonyl}amino)-1H-benzimidazole-4-carboxamide hydrochloride], for which the IC50 on human mPGES-1 stood at 3.6 nM; in the assay on A549 cells, 144 nM.
As to `COCc1nc2c(C(=O)Nc3cccc4c3CCCC4)cc(NC(=O)c3ccccc3C(F)(F)F)cc2[nH]1` [Example 34, 2-(Methoxymethyl)-N-(5,6,7,8-tetrahydronaphthalen-1-yl)-6-({[2-(trifluoromethyl)phenyl]carbonyl}amino)-1H-benzimidazole-4-carboxamide hydrochloride], the concentration for half-maximal inhibition (IC50) turned out to be 4.9 nM at human mPGES-1 and 27.6 nM in the assay with A549 cells.
The like results for `Cc1c(Cl)cccc1NC(=O)c1cc(NC(=O)c2ccccc2C(F)(F)F)cc2[nH]c(N(CCO)CCO)nc12` [Example 144, 2-[Bis(2-hydroxyethyl)amino]-N-(3-chloro-2-methylphenyl)-6-({[2-(trifluoromethyl)phenyl]carbonyl}amino)-1H-benzimidazole-4-carboxamide hydrochloride] were, in that order, 9.7 nM and 2990 nM.
Taken in the same sequence, the figures for `COCc1nc2c(C(=O)Nc3ccc(C)c(C)c3)cc(NC(=O)c3ccccc3C(F)(F)F)cc2[nH]1` [Example 31, N-(3,4-Dimethylphenyl)-2-(methoxymethyl)-6-({[2-(trifluoromethyl)phenyl]carbonyl}amino)-1H-benzimidazole-4-carboxamide hydrochloride] were 4.1 nM and 69 nM.
The like results for `Cc1c(Cl)cccc1NC(=O)c1cc(NC(=O)c2ccccc2C(F)(F)F)cc2[nH]c(N[C@H](CO)C(C)(C)C)nc12` [Example 172, N-(3-Chloro-2-methylphenyl)-2-{[(2S)-1-hydroxy-3,3-dimethylbutan-2-yl]amino}-6-({[2-(trifluoromethyl)phenyl]carbonyl}amino)-1H-benzimidazole-4-carboxamide hydrochloride] were, in that order, 4.5 nM and 134 nM.
For `COCCc1nc2c(C(=O)Nc3cccc(Cl)c3C)cc(NC(=O)c3ccccc3C(F)(F)F)cc2[nH]1` [Example 81, N-(3-Chloro-2-methylphenyl)-2-(2-methoxyethyl)-6-({[2-(trifluoromethyl)phenyl]carbonyl}amino)-1H-benzimidazole-4-carboxamide hydrochloride], the IC50 was 5 nM at human mPGES-1 and 404 nM with A549 cells.
`CCOc1nc2c(C(=O)Nc3cccc(Cl)c3C)cc(NC(=O)c3ccccc3C(F)(F)F)cc2[nH]1` [Example 55, N-(3-Chloro-2-methylphenyl)-2-ethoxy-6-({[2-(trifluoromethyl)phenyl]carbonyl}amino)-1H-benzimidazole-4-carboxamide]: the concentration for half-maximal inhibition (IC50) on human mPGES-1 worked out at 2.7 nM; in the assay with A549 cells, 64.3 nM.
The like results for `CCCCOc1ccc(Cl)c(C(=O)Nc2cc(C(=O)Nc3cccc(Cl)c3C)c3nc(COC)[nH]c3c2)c1` [Example 247, 6-{[(5-Butoxy-2-chlorophenyl)carbonyl]amino}-N-(3-chloro-2-methylphenyl)-2-(methoxymethyl)-1H-benzimidazole-4-carboxamide hydrochloride] were, in that order, 68.4 nM and 55 nM.
